Where a SMILES comes first, the peptide text is derived from it. The star is where a group is joined. CHN2 = [N-]=[N+]=C* Where only a bound is given, the exact number is not on record here.

Assay [1] addresses T1, Dipeptidyl peptidase 1 (Homo sapiens, UniProt P53634). The experiment in a line: Inhibition of Cathepsin C (unknown origin).
Assay [2] addresses T1, Dipeptidyl peptidase 1. The experiment in a line: Inhibition of human Cathepsin C using Z-Arg-Arg-AM as substrate at 3 microM relative to control.
The test system of a further assay is Mus musculus. Description: Inhibition of Cathepsin C in mouse spleen measured at 5 mg/kg ip, relative to control. It is filed as organism-based.
For assay [3], the target named is T1, Dipeptidyl peptidase 1. The experiment in a line: Inhibition of human Cathepsin C using Ala-4-[ 125 I]Phe-DMK as substrate preincubated for 30 mins followed by substrate addition measured after 6 to 24 hrs.
For assay [4], the target named is T1, Dipeptidyl peptidase 1. Description: Inhibition of human Cathepsin C using Gly- L -Phe-p-nitroanilide.HCl as substrate.
Assay [5] addresses T1, Dipeptidyl peptidase 1. Description: Inhibition of human Cathepsin C using Gly-Phe-AMC as substrate assessed as kobs/[I].
The target in assay [6] is T1, Dipeptidyl peptidase 1. The experiment in a line: Inhibition of human Cathepsin C using Gly-Phe-paranitroanilide as substrate incubated for 12 mins.

T1 sequence (P53634 25-134 limits assumed): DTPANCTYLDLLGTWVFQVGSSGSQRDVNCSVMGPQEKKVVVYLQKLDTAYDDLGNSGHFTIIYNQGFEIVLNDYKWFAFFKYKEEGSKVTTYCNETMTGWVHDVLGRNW
T1 sequence (P53634 231-394 limits assumed): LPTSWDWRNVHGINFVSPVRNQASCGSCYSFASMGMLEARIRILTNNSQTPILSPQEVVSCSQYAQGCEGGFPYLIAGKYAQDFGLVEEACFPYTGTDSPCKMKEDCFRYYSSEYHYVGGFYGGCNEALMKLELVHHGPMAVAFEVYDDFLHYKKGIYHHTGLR
T1 sequence (P53634 395-463 limits assumed): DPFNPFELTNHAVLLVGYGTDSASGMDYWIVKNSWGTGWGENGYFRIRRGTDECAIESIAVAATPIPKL

`CC[C@@H](/C=C/C(=O)N1CCc2ccccc21)NC(=O)C1(N)CCOCC1` displayed an IC50 on Dipeptidyl peptidase 1 [1] of 1 nM.

Take `[N-]=[N+]=CC(=O)[C@H](Cc1ccccc1)NC(=O)CN` (H-Gly-Phe-CHN2): the inhibition against Dipeptidyl peptidase 1 [2] and in the assay on Mus musculus was more than 90% in each case.

With `N#[N+][CH-]C(=O)[C@H](Cc1ccccc1)NC(=O)CN`, on Dipeptidyl peptidase 1 [3], half-maximal inhibition (IC50) required 50 nM.

At Dipeptidyl peptidase 1 [4], `CC(C)CC(NC(=O)CN)P(=O)(O)CCC(=O)O` (stereo unspecified) yielded an IC50 of 39000 nM.

On Dipeptidyl peptidase 1 [2], `C[C@H](N)C(=O)N[C@H](/C=C/S(=O)(=O)c1ccccc1)CCc1ccccc1` returned an ID50 of 100 nM. Moreover, the Ratio at Dipeptidyl peptidase 1 [5] was 2 10^6/M/s.

For the compound `CC[C@H](N)C(=O)N[C@]1(C#N)C[C@@H]1c1ccc(-c2ccc(S(=O)(=O)N3CCN(C)CC3)cc2)cc1`, the IC50 against Dipeptidyl peptidase 1 [6] was found to be 15 nM.

At Dipeptidyl peptidase 1 [1], `C=CC(=O)Nc1cc2c(Nc3ccc(F)c(Cl)c3)ncnc2cc1OCCCN1CCOCC1` [CANERTINIB] showed an IC50 of 120 nM.

Regarding `C[C@@H](O)[C@H](N)C(=O)N[C@@H](/C=C/S(C)(=O)=O)CCC(=O)O`, the IC50 against Dipeptidyl peptidase 1 [2] worked out at 4900 nM. On Dipeptidyl peptidase 1 [5], the Ratio stood at 2900 M⁻¹ s⁻¹.

As usually defined, the IC50 is the point on the concentration scale where inhibition reaches its midpoint. As a reminder, the inhibition is the change of the read-out against control, counted positive when it falls. A lower inhibition goes with little suppression.

(Values after ChEMBL document CHEMBL5233276, “Cathepsin C inhibitors as anti-inflammatory drug discovery: Challenges and opportunities” (Eur J Med Chem, 2021).)
